Earlier results, collected in patent publication US5977101A, “Benzimidazoles/Imidazoles Linked to a Fibrinogen Receptor Antagonist Template Having Vitronectin Receptor Antagonist Activity” (SmithKline Beecham Corporation, priority 1996, dated 1999).

Tests used:
bone resorption [1] = conditions: rat; Fisher et al., Endocrinology 1993
osteoclasts = conditions: Sato et al. 1990; Bertolini et al.
bone resorption [2] = conditions: Sato et al., J. Cell Biol. 1990

| Substance | inhibition of bone resorption in vivo (bone resorption [1]) | inhibition of attachment of osteoclasts to bone (osteoclasts) | inhibition of bone resorption in tissue culture (bone resorption [2]) |
| --- | --- | --- | --- |
| echistatin | inhibits | inhibits | potent inhibitor |
| cylco-S,S-N^α -acetyl-cysteinyl-N^α -methyl-argininyl-glycyl-aspartyl-penicillamine |  | inhibits |  |
